Source: patent US9133260B2 (priority 2005, dated 2015)
Entries after “also recorded” stand apart in the source; their conditions may differ. Like-named read-outs stand apart in the source and are kept apart here. Ends that are not written are not given here.

What was measured:
[1] = cited from earlier work; for EC(50) inhibition of gastric emptying: subcutaneous, conscious rats, rat weight ~200 g; for inhibition of gastric emptying, in words: at doses of 100 μg
[2] = format: in vivo, NIH/Swiss mice; details: for acute food intake, in words: IP at t=0, 30, 60, 120 min
Method: Peptide was injected IP at t=0.
Peptide was injected IP at t=0. […] Peptide was injected IP at t=0.

[3] = system: cardiomyocyte Gs-coupled receptors; assay: cAMP production in isolated neonatal cardiomyocytes (HTRF); format: cell-based, rat
Method: Activation of cardiomyocyte Gs- and Gi-coupled receptors was determined as a measure of cAMP production.
Cell Isolation. Neonatal cardiomyocytes were isolated using a commercially available system. […] Sprague Dawley neonatal rats (1-2 days old) were decapitated and the beating heart dissected out into digestion buffer (Cellutron D1 buffer) to dissociate cells. […] The resuspended cells incubated in buffer (Cellutron D3 buffer) for sufficient time to allow optimal dispersion and minimize the need for pipetting to break up clumps. Cells released from the first 2 digestions were discarded since a significant portion of these is red blood cells. Resuspended cells were filtered and allowed to pre-plate for 1 hour on plastic in an incubator in NS media (Cellutron, NJ) in order to remove fibroblasts. After 1 hour of pre-plating, floating cells are removed and the flask rinsed with NS media. The floating cells and the cells in the rinse media were combined and counted. Residual red blood cells, which are smaller that the cardiac myocytes, were not counted.
Cell Plating. […] At Day 1, the NS media was replaced with fresh NS media.
cAMP Assay. […] Dose response was determined.
For Gs assays the positive control was 10 uM forskolin and negative control was buffer. For Gi assays the positive control was buffer and the negative control was 10 uM forskolin.

[4] = Intravenous glucose tolerance test (IVGTT assay); format: in vivo, rats; details: 100 pmol/kg/min infusion; for insulinotropic response to an intravenous glucose challenge: anesthetized HSD male rats
Method: All three analogs produced a significant lowering of the glucose excursion in response to the glucose challenge (data not shown). As described, fed, isoflurane anesthetized HSD male rats were intubated and cannulated via femoral artery and vein and allowed to stabilize for 1 hour. […] At t=0, an i.v. bolus of 5.7 mmol/kg D-glucose was administered over 2 minutes. Samples for glucose measurement and insulin concentrations were taken at various time points before and after (0 to 90 minutes) glucose infusion.

[5] = Basal glucose lowering in 2-hour fasted NIH/Swiss mice; format: in vivo; details: for basal glucose lowering (% maximal decrease): mouse, in vivo
Method: (§1) In FIG. 3A, bars represent mean±sd, n=6-10. Peptide was injected IP at t=−5 into overnight-fasted NIH/Swiss mice. Gavage (1.5 g/kg) was given at t=0. Sample was taken at t=30 min. […] In FIG. 3B, points represent mean±sem, n=8-15. Peptide was injected IP at t=0 immediately following baseline sample into 2-hour fasted NIH/Swiss mice. Samples were taken at t=60, 120, and 180 minutes. […] Compound G has both an N-terminal modification providing DPP-IV resitance and a C-terminal Trp-cage shield.
Points represent mean±sem. Peptide was injected IP at t=0 immediately following baseline sample into 2-hour fasted NIH/Swiss mice. Samples were taken at t=60, 120, 180 and 240 minutes.
FIGS. 8A and 8b provide a result of one such study. Points represent mean±sem. Peptide was injected IP at t=0 immediately following baseline sample into 2-hour fasted NIH/Swiss mice. Samples were taken at t=60, 120, 180 and 240 minutes.

[6] = Oral glucose tolerance test (OGTT); format: in vivo, NIH/Swiss mice; details: decrease in the OGTT assay
Method: as §1
In FIG. 13B bars represent mean+/−sd. Peptide was injected IP at t=−5 minutes into 4-hour fasted NIH/Swiss female mice. Gavage (1.5 g/kg) was given at t=0. […] In FIG. 17 points represent mean+/−sem. Peptide was injected IP at t=) immediatley following baseline sample into 2-hour fasted NIH/Swiss mice. Samples were taken at t=60, t=120 and t=180. […] In one embodiment for each of these GIP hybrids a Gly linker is used, e.g. GlyGlyGly.

[7] = Circulatory system effects in conscious rats by telemetry; format: in vivo; details: 80 nmol/kg intravenous
Method: The experiments were performed during the light cycle. Telemetry allows for real-time hemodynamic readings including arterial blood pressure, heart rate and arterial dP/dt, via an implanted radio transmitter in conscious, non-anesthetized, unrestrained rats. […] Remote intravenous dosing was achieved through in-dwelling vascular access ports (Access Technologies (Skokie, Ill.). The port is secured to the underlying muscle just below the skin between the scapulae. The catheter resides in the jugular vein. Data were collected for up to 60 minutes following injection.

[8] = Body weight in diet-induced-obesity (DIO) mice; format: in vivo, C57BL/6 mice; details: for body weight change in diet-induced-obese mice: infused via osmotic pump for 2 weeks
[9] = Glucose lowering in diabetic db/db mice; format: in vivo; details: IP; GIP at a 10 fold higher dose
Method: Peptide was injected IP at t=0 immediately following baseline sample into 2-hour fasted db/db mice.

relevant receptors = assay: Cyclase, table of GIP/amylin-sCT hybrids; format: biochemical; details: receptor and unit inferred

CSNLSTCVLGKLSQELHKLQTYPRTNTGSGTP [Salmon calcitonin]
EC(50) inhibition of gastric emptying [1]: 0.19 µg

DY(SO3) MGWMDF-NH2 [CCK-8]
EC(50) inhibition of gastric emptying [1]: 2.93 µg
60 min ED50 ([2]; mouse, in vivo): 26 nmol/kg

Gastrin releasing peptide: gastrin releasing peptide (VPLPAGGGTVLTKMYPRGNHWAVGHLM-NH2; ends and bridges not checked; UniProt P07492 24-50, looked up)
EC(50) inhibition of gastric emptying [1]: 28.5 µg

HAEGTFTSDVSSYLEGQAAKEFIAWLVKGR-NH2 [GLP-1]
EC(50) inhibition of gastric emptying [1]: 1.82 µg
cAMP activity in cardiomyocytes, in words [3]: very low to no significant activity

HGEGAFTSDLSKQLEEEAVRLFIEFLKN-NH2 [Exendin-4 (1-28) [Ala5, Leu14, Phe25]]
60 min ED50 ([2]; mouse food intake at 60 min): 13 nmol/kg

KCNTATCATQRLANFLVHSSNNFGAILSSTNVGSNTY [Human amylin]
EC(50) inhibition of gastric emptying [1]: 0.15 µg

KCNTATCATQRLANFLVRSSNNLGPVLPPTNVGSNTY-NH2 [Rat Amylin]
EC(50) inhibition of gastric emptying [1]: 0.18 µg
acute food intake, in words [2]: significant decrease in food intake within 30 min
60 min ED50 ([2]; mouse food intake at 60 min): 9 nmol/kg

PACAP38: pituitary adenylate cyclase activating peptide (PACAP38) (HSDGIFTDSYSRYRKQMAVKKYLAAVLGKRYKQRVKNK-NH2; ends and bridges not checked; UniProt P18509 132-169, looked up)
inhibition of gastric emptying, in words [1]: weakly active or inactive

Rat CGRP: rat calcitonin gene related peptide (SCNTATCVTHRLAGLLSRSGGVVKDNFVPTNVGSEAF; ends and bridges not checked; cysteine pairing not given here; UniProt P01256 83-119, looked up)
EC(50) inhibition of gastric emptying [1]: 1.62 µg

Rat calcitonin: rat calcitonin, peptide compared for inhibition of gastric emptying (CGNLSTCMLGTYTQDLNKFHTFPQTSIGVGAP; ends and bridges not checked; cysteine pairing not given here; UniProt P01257 85-116, looked up)
EC(50) inhibition of gastric emptying [1]: 0.64 µg

Secretin: gut peptide hormone secretin
EC(50) inhibition of gastric emptying [1]: 1.87 µg

Y(D-Ala)EGTFISDYSIAMDKIHQQDFVNWLLAQKGKKNDWKHNITQ-OH [Compound 0601GIP4042]
insulinotropic response to an intravenous glucose challenge [4]: significant enhancement of the insulinotropic response
basal glucose lowering (% maximal decrease) [5]: −11%

YAEGTFISDYSIAMDKIHQQDFVNWLLAQKGKKNDWKHNITQ-OH [GIP]
OGTT response [6]: −10%
insulin levels prior to the glucose challenge [4]: significant rise in insulin levels
insulinotropic response to an intravenous glucose challenge [4]: significant enhancement of the insulinotropic response
inhibition of gastric emptying, in words [1]: weakly active or inactive
dP/dt [7]: increased dP/dt similarly
heart rate [7]: chronotropic (heart rate elevating) effect
mean arterial pressure [7]: had no effect
body weight change in diet-induced-obese mice [8]: had no effect on body weight change
glucose lowering in diabetic db/db mice, in words [9]: modest and wanes over time
acute food intake, in words [2]: did not acutely inhibit food intake

YAEGTFISDYSIAMDKIHQQDFVNWLLAQKPSSGAPPPS [Compound 1]
EC50 (relevant receptors): 519 nM

YaEGTFISDYSIAMDKIHQQDFVNWLLAQKPSSGAPPPS-NH2 [Compound 0601GIP3794]
OGTT response [6]: −21%
insulin levels prior to the glucose challenge [4]: significant rise in insulin levels
insulinotropic response to an intravenous glucose challenge [4]: significant enhancement of the insulinotropic response
glucose lowering in normal NIH/Swiss mice, in words ([5]; IP, samples 60-240 min, listed as Compound G): significantly more efficacious than full length GIP; also recorded: gradually increasing activity that peaks at t=120 min
basal glucose lowering (% maximal decrease) [5]: −20%
dP/dt [7]: increased dP/dt similarly
heart rate [7]: transient relative to GIP
mean arterial pressure [7]: decreased mean arterial pressure
systolic and diastolic pressures [7]: sustained lowering of systolic and diastolic pressures
EC50 ([3]; experiment of FIGS. 18A/18B, read-out: EC50, cAMP production in cardiomyocytes): 11.7 nM
EC50 ([3]; from three independent experiments, read-out: EC50, cardiomyocyte Gs-coupled receptor activation): 29.8 nM
body weight change in diet-induced-obese mice [8]: without a concomitant reduction in body weight
body composition ([8]; mouse, in vivo): slight decrease in percentage body fat with an increase in body protein
glucose lowering in diabetic db/db mice, in words [9]: pronounced and long-acting effect in lowering glucose
acute food intake, in words [2]: did not acutely inhibit food intake

adrenomedullin: amylin family peptide hormone adrenomedullin (YRQSMNNFQGLRSFGCRFGTCTVQKLAHQIYQFTDKDKDNVAPRSKISPQGY; ends and bridges not checked; cysteine pairing not given here; UniProt P35318 95-146, looked up)
inhibition of gastric emptying, in words [1]: weakly active or inactive

glucagon: peptide hormone glucagon
inhibition of gastric emptying, in words [1]: weakly active or inactive

insulin: insulin (tested with plasma glucose maintained constant)
inhibition of gastric emptying, in words [1]: weakly active or inactive

neuropeptide Y: neuropeptide Y
inhibition of gastric emptying, in words [1]: weakly active or inactive

vasoactive intestinal peptide: vasoactive intestinal peptide (VIP) (HSDAVFTDNYTRLRKQMAVKKYLNSILN; ends and bridges not checked; UniProt P01282 125-152, looked up)
inhibition of gastric emptying, in words [1]: weakly active or inactive
